Measurements taken from PubChem BioAssay (NCI).
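Following 48 hours of exposure in 96-well plates, responses at five concentrations were used to interpolate endpoints linearly. Definition used: TGI = concentration required for complete inhibition of growth.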

What was measured:
Assay in all cases: NCI tumour cell line growth inhibition, 48 h
[1] = tested on: DMS 273 small cell lung
[2] = tested on: P388 leukemia
[3] = tested on: XF 498 CNS
[4] = tested on: M19-MEL melanoma
[5] = tested on: A498 renal
[6] = tested on: SR leukemia
[7] = tested on: M14 melanoma
[8] = tested on: TK-10 renal
[9] = tested on: ACHN renal

## O=C(Nc1ccc(C2=NCCN2)cc1)c1cncc(C(=O)Nc2ccc(C3=NCCN3)cc2)c1
[1]
  TGI: > 100 µM
[2]
  TGI: 82.5 µM
[3]
  TGI: > 100 µM
[4]
  TGI: > 100 µM
[5]
  TGI: > 100 µM

## CCOC(=O)C(NC(C)=O)(Nc1ccc(F)cc1)C(F)(F)F (centres undefined)
[6]
  TGI: > 100 µM
[7]
  TGI: > 100 µM
[8]
  TGI: > 100 µM
[9]
  TGI: > 100 µM
